In patent US20140005163A1 (NOVARTIS AG, priority 2010, published 2014):
pIC50: −log10 of the molar value.

Key:
[1] = test system: S6 Ribosomal Protein phosphorylation Ser235/236 in TSC1 null mouse embryo fibroblast (MEF) cells; assay: Reverse protein array assay, S6 Ribosomal Protein phosphorylation Ser235/236 in TSC1 null MEF cells; format: cell-based; settings: 1 h, pS6 ribosomal protein Ser235/236, 60 minutes incubation, read-out: p-S6 IC50
Method in brief: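 TSC1−/− MEFs, seeded and held ≥20 h at 37 °C/5% CO2, were exposed to 8-step serial compound dilutions (0.02% DMSO final; DMSO vehicle control) for 60 min at 37 °C. Cells were then lysed on ice for 10 min and lysates spotted onto reverse protein array chips.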

PI3K delta = target: T1, PI3K delta (Homo sapiens, UniProt O00329); assay: PI3K delta kinase assay (Kinase-Glo luminescence); format: biochemical
T1 construct: for the full-length p110-d subunit are generated and fused by overlapping PCR; p85(iSH2) fusion partner (see partner chain) (N); His tag (C); made in house; host or cells: baculovirus; Tn5 (Trichoplusia ni) or TiniPro insect cells
Method in brief: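 ATP 1 μM, PI 10 μg/mL, PI3Kδ construct BV1060 10 nM (final); 10 mM Tris pH 7.5, 3 mM MgCl2, 50 mM NaCl, 0.05% CHAPS, 1 mM DTT; 60 min RT; Kinase-Glo stop, luminescence.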

PI3K gamma = target: T2, PI3K gamma (Homo sapiens, UniProt P48736); assay: PI3K gamma kinase assay (Kinase-Glo luminescence); format: biochemical
T2 construct: His tag (C); made in house; host or cells: baculovirus (pVL1393); Tn5 or TiniPro insect cells; construct from Roger Williams lab, MRC LMB
Method in brief: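 PI3Kγ (150 nM) reaction run 120 min at room temperature with phosphatidylinositol substrate (10 μg/mL) and ATP (1 μM) in Tris pH 7.5 buffer containing MgCl2, NaCl, CHAPS and DTT. Remaining ATP detected by Kinase-Glo luminescence; 8 concentrations per compound, IC50 from 4-parameter curve fitting.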

[2] = Cellular CaCo2 permeability assay from apical to basal (A-B); format: in vitro ADME; settings: human, Caco-2, read-out: Pe A-B (permeability)
From the text: The permeability in 10^−6 cm/s of compounds of formula (I) have been confirmed for selected example using a cellular CaCo2 permeability assay from apical to basal (A-B): […]

T2 sequence (P48736 144-1102 limits assumed): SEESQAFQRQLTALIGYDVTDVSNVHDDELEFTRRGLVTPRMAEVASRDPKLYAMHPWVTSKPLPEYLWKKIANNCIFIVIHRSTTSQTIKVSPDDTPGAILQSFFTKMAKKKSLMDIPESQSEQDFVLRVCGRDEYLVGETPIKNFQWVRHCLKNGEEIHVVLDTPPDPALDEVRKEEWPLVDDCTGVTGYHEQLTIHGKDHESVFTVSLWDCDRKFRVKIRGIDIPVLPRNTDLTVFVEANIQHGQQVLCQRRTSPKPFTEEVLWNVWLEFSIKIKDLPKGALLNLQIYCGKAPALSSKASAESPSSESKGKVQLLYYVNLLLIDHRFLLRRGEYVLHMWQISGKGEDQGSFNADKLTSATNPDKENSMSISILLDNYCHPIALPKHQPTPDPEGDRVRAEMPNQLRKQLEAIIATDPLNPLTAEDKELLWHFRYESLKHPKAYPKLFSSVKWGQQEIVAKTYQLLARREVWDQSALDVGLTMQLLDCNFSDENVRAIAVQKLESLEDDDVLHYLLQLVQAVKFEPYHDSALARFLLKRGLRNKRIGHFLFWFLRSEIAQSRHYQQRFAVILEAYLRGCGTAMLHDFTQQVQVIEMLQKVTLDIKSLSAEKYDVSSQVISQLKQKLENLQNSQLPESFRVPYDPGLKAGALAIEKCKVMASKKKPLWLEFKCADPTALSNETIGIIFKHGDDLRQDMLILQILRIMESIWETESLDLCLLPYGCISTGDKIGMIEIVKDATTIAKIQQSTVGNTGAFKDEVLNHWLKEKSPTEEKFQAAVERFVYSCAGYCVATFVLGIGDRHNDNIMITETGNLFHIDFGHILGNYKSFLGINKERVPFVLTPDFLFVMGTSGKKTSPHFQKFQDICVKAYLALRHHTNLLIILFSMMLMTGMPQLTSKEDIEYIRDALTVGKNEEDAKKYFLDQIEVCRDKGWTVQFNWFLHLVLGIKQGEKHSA
T1 sequence (O00329 with tags, fused parts or gaps limits assumed): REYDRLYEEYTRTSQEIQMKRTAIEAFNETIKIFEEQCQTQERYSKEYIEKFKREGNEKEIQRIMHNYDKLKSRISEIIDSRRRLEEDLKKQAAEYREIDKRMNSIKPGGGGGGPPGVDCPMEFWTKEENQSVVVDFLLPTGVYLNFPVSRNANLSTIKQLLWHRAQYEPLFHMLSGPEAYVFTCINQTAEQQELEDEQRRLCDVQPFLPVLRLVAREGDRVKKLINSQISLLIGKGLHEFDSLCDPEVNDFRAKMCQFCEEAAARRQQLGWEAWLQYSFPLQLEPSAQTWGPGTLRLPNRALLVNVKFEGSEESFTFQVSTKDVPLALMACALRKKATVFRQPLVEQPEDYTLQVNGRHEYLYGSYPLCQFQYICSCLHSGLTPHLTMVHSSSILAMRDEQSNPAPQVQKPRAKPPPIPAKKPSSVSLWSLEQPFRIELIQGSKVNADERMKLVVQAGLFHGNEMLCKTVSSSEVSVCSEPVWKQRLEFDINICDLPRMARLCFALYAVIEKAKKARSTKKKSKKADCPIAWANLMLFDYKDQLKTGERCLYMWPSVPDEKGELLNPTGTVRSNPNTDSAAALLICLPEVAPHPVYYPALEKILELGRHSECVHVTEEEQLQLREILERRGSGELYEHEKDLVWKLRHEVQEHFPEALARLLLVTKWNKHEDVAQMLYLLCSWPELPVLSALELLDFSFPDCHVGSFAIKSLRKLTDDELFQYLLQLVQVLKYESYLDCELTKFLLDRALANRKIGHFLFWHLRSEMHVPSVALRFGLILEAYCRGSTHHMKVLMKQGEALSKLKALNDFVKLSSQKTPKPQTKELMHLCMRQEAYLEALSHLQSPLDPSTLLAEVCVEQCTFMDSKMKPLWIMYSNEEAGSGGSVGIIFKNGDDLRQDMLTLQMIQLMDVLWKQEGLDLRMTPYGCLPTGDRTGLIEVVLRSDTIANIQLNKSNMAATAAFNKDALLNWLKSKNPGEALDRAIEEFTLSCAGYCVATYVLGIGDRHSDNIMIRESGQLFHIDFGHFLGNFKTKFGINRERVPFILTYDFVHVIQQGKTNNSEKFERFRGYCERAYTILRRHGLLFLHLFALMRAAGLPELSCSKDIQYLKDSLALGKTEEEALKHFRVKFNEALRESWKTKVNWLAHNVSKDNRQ

Structure (SMILES) | pIC50 [1] | pIC50 (PI3K delta) | pIC50 (PI3K gamma) | Papp A→B [2] [×10⁻⁶ cm/s]
CCOc1ccc(-c2ccc3ncc4c(c3c2)n(-c2cnn(C)c2C)c(=O)n4C)cn1 [Example 3.6, 1-(1,5-Dimethyl-1H-pyrazol-4-yl)-8-(6-ethoxy-pyridin-3-yl)-3-methyl-1,3-dihydro-imidazo[4,5-c]quinolin-2-one] | 7.82 | 6.80 | 6.74 | 
CCn1cc(-n2c(=O)n(C)c3cnc4ccc(-c5cnc(N(C)C)nc5)cc4c32)c(C)n1 [Example 6.4, 8-(2-Dimethylamino-pyrimidin-5-yl)-1-(1-ethyl-3-methyl-1H-pyrazol-4-yl)-3-methyl-1,3-dihydro-imidazo[4,5-c]quinolin-2-one] | 8.00 | 7.36 |  | 29.7
CNC(=O)c1ccc(-c2ccc3ncc4c(c3c2)n(-c2cn(C(C)C)nc2C)c(=O)n4C)cn1 [Example 15.3, 5-[1-(1-Isopropyl-3-methyl-1H-pyrazol-4-yl)-3-methyl-2-oxo-2,3-dihydro-1H-imidazo[4,5-c]quinolin-8-yl]-pyridine-2-carboxylic acid methylamide] | 7.77 | 6.48 | 6.49 | 
CCOc1ccc(-c2ccc3ncc4c(c3c2)n(-c2cn(CC)nc2C)c(=O)n4C)cc1OCC [Example 27.1, 8-(3,4-Diethoxy-phenyl)-1-(1-ethyl-3-methyl-1H-pyrazol-4-yl)-3-methyl-1,3-dihydro-imidazo[4,5-c]quinolin-2-one] | 7.89 | 7.77 | 6.67 | 
CCOc1cc(-c2ccc3ncc4c(c3c2)n(-c2cn(C)nc2C)c(=O)n4C)ccc1OC [Example 28.3, 1-(1,3-Dimethyl-1H-pyrazo1-4-yl)-8-(3-ethoxy-4-methoxy-phenyl)-3-methyl-1,3-dihydro-imidazo[4,5-c]quinolin-2-one] | 8.70 | 7.38 | 6.71 | 
CCOc1ccc(-c2ccc3ncc4c(c3c2)n(-c2cn(C)nc2C)c(=O)n4C)cc1OC [Example 29.3, 1-(1,3-Dimethyl-1H-pyrazol-4-yl)-8-(4-ethoxy-3-methoxy-phenyl)-3-methyl-1,3-dihydro-imidazo[4,5-c]quinolin-2-one] | 8.40 | 7.40 | 6.77 | 
CCn1cc(-n2c(=O)n(C)c3cnc4ccc(-c5ccc(OCCOC)c(OC)c5)cc4c32)c(C)n1 [Example 30.2, 1-(1-Ethyl-3-methyl-1H-pyrazol-4-yl)-8-[3-methoxy-4-(2-methoxy-ethoxy)-phenyl]-3-methyl-1,3-dihydro-imidazo[4,5-c]quinolin-2-one] | 7.39 | 7.38 | 6.82 | 
Cc1nn(C)cc1-n1c(=O)n(C)c2cnc3ccc(-c4cccc(O)c4)cc3c21 [Example 32.1, 1-(1,3-Dimethyl-1H-pyrazol-4-yl)-8-(3-hydroxy-phenyl)-3-methyl-1,3-dihydro-imidazo[4,5-c]quinolin-2-one] | 7.96 | 7.33 | 6.85 | 
Cc1nn(C)cc1-n1c(=O)n(C)c2cnc3ccc(-c4cccc5c4OC(F)(F)O5)cc3c21 [Example 35, 8-(2,2-Difluoro-benzo[1,3]dioxol-4-yl)-1-(1,3-dimethyl-1H-pyrazol-4-yl)-3-methyl-1,3-dihydro-imidazo[4,5-c]quinolin-2-one] | 8.70 | 7.54 | 6.95 | 
Cc1nn(C)cc1-n1c(=O)n(C)c2cnc3ccc(-c4ccccc4)cc3c21 [Example 37.1, 1-(1,3-Dimethyl-1H-pyrazol-4-yl)-3-methyl-8-phenyl-1,3-dihydro-imidazo[4,5-c]quinolin-2-one] | 7.52 | 6.35 | 6.84 | 
Cc1nn(C)cc1-n1c(=O)n(C)c2cnc3ccc(-c4cccc(S(C)(=O)=O)c4)cc3c21 [Example 40, 1-(1,3-Dimethyl-1H-pyrazol-4-yl)-8-(3-methanesulfonyl-phenyl)-3-methyl-1,3-dihydro-imidazo[4,5-c]quinolin-2-one] | 7.44 | 7.64 | 7.08 | 
Cc1nn(C)cc1-n1c(=O)n(C)c2cnc3ccc(-c4ccc(C(N)=O)cc4)cc3c21 [Example 41, 4-[1-(1,3-Dimethyl-1H-pyrazol-4-yl)-3-methyl-2-oxo-2,3-dihydro-1H-imidazo[4,5-c]quinolin-8-yl]-benzamide] | 7.64 | 7.09 | 6.78 | 
Cc1nn(C)cc1-n1c(=O)n(C)c2cnc3ccc(-c4cccc(C(N)=O)c4)cc3c21 [Example 46, 3-[1-(1,3-Dimethyl-1H-pyrazol-4-yl)-3-methyl-2-oxo-2,3-dihydro-1H-imidazo[4,5-c]quinolin-8-yl]-benzamide] | 7.01 | 6.53 | 6.41 | 
Cc1nn(C)cc1-n1c(=O)n(C)c2cnc3ccc(-c4ccc5c(c4)CC(=O)N5)cc3c21 [Example 49, 1-(1,3-Dimethyl-1H-pyrazol-4-yl)-3-methyl-8-(2-oxo-2,3-dihydro-1H-indol-5-yl)-1,3-dihydro-imidazo[4,5-c]quinolin-2-one] | 6.66 | 6.97 | 6.56 | 
Cc1nn(C)cc1-n1c(=O)n(C)c2cnc3ccc(-c4cccc(S(=O)(=O)N(C)C)c4)cc3c21 [Example 53.1, 3-[1-(1,3-Dimethyl-1H-pyrazol-4-yl)-3-methyl-2-oxo-2,3-dihydro-1H-imidazo[4,5-c]quinolin-8-yl]-N,N-dimethyl-benzenesulfonamide] | 7.37 | 7.92 | 6.72 | 
COCc1cncc(-c2ccc3ncc4c(c3c2)n(-c2cn(C)nc2C)c(=O)n4C)c1 [Example 54.1, 1-(1,3-Dimethyl-1H-pyrazol-4-yl)-8-(5-methoxymethyl-pyridin-3-yl)-3-methyl-1,3-dihydro-imidazo[4,5-c]quinolin-2-one] | 8.30 | 7.72 | 6.80 | 
CCOc1cncc(-c2ccc3ncc4c(c3c2)n(-c2cn(C)nc2Cl)c(=O)n4C)c1 [Example 56.4, 1-(3-Chloro-1-methyl-1H-pyrazol-4-yl)-8-(5-ethoxy-pyridin-3-yl)-3-methyl-1,3-dihydro-imidazo[4,5-c]quinolin-2-one] | 9.00 | 8.22 | 6.92 | 
Cc1nn(C)cc1-n1c(=O)n(C)c2cnc3ccc(-c4cnc5c(c4)nnn5C)cc3c21 [Example 72, 1-(1,3-Dimethyl-1H-pyrazol-4-yl)-3-methyl-8-(3-methyl-3H-[1,2,3]triazolo[4,5-b]pyridin-6-yl)-1,3-dihydro-imidazo[4,5-c]quinolin-2-one] | 7.24 | 7.54 | 6.47 | 
Cc1nn(C)cc1-n1c(=O)n(C)c2cnc3ccc(-c4cnc5c(c4)ncn5C)cc3c21 [Example 74, 1-(1,3-Dimethyl-1H-pyrazol-4-yl)-3-methyl-8-(3-methyl-3H-imidazo[4,5-b]pyridin-6-yl)-1,3-dihydro-imidazo[4,5-c]quinolin-2-one] | 7.64 | 7.37 | 6.51 | 
Cc1nn(C)cc1-n1c(=O)n(C)c2cnc3ccc(-c4ccc(OCCO)nc4)cc3c21 [Example 107, 1-(1,3-Dimethyl-1H-pyrazol-4-yl)-8-[6-(2-hydroxy-ethoxy)-pyridin-3-yl]-3-methyl-1,3-dihydro-imidazo[4,5-c]quinolin-2-one] | 7.34 | 7.55 | 6.83 | 
CCOc1ccc(-c2ccc3ncc4[nH]c(=O)n(-c5cn(C)nc5C)c4c3c2)cn1 [Example 110, 1-(1,3-Dimethyl-1H-pyrazol-4-yl)-8-(6-ethoxy-pyridin-3-yl)-1,3-dihydro-imidazo[4,5-c]quinolin-2-one] | 7.11 | 7.38 | 6.47 | 
CNc1ccc(-c2ccc3ncc4c(c3c2)n(-c2cn(C)nc2C)c(=O)n4C)cn1 [Example 118.2, 1-(1,3-Dimethyl-1H-pyrazol-4-yl)-3-methyl-8-(6-methylamino-pyridin-3-yl)-1,3-dihydro-imidazo[4,5-c]quinolin-2-one] | 9.00 | 7.89 | 6.55 | 
CCn1cc(-n2c(=O)n(C)c3cnc4ccc(-c5ccc(NC)nc5)cc4c32)c(C)n1 [Example 118.4, 1-(1-Ethyl-3-methyl-1H-pyrazol-4-yl)-3-methyl-8-(6-methylamino-pyridin-3-yl)-1,3-dihydro-imidazo[4,5-c]quinolin-2-one] | 8.70 | 7.72 |  | 15.9
COc1ccc(-c2ccc3ncc4c(c3n2)n(-c2cn(C)nc2C)c(=O)n4C)cc1OC [Example 250, 8-(3,4-Dimethoxy-phenyl)-1-(1,3-dimethyl-1H-pyrazol-4-yl)-3-methyl-1,3-dihydro-1,3,5,9-tetraaza-cyclopenta[a]naphthalen-2-one] | 7.89 | 7.77 | 6.73 | 
